Where two headings read alike, the source gives them in different places.
How the values were obtained:
GSK-3β = GSK-3β (Homo sapiens, UniProt P49841); experiment: GSK-3β enzyme activity assay; type: biochemical; settings: for GSK-3β inhibition, result in words: titration from 20 μM
[1] = target: T1, HIV reverse transcriptase (RT) (Human immunodeficiency virus type 1 group M subtype B, UniProt P03366); settings: read-out: HIV RT IC50; marked *, previously reported data ref 19; cited from earlier work
HIV, WT = settings: read-out: HIV, WT EC50, cited from earlier work
[2] = target: T1, HIV reverse transcriptase (RT); experiment: NNRTI assay; type: biochemical

Sequence of GSK-3β (P49841 whole entry): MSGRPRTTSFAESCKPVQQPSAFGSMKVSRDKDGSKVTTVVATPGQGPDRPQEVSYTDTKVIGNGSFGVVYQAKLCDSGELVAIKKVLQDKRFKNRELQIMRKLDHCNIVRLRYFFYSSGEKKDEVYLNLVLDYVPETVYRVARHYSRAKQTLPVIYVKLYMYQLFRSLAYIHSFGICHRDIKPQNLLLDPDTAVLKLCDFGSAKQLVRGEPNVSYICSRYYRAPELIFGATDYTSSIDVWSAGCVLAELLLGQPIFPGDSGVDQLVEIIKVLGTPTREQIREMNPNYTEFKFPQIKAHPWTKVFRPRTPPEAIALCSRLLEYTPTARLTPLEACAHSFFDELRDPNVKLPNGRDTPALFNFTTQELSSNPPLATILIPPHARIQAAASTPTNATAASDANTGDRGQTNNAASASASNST

SMILES	IC50 (GSK-3β) [nM]	GSK-3β inhibition, result in words (GSK-3β)	IC50 [1] [nM]	EC50 (HIV, WT; whole cell activity ref 22) [nM]	EC50 (HIV, WT; whole cell activity ref 21) [nM]	IC50 [2] [nM]
Cn1c(Cn2ccc(C(F)(F)F)c(Oc3cc(Cl)cc(C#N)c3)c2=O)n[nH]c1=O [Doravirine]	> 20000	not inhibitors	20.7	13	–	–
Cc1cc(C#N)cc(C)c1Oc1nc(Nc2ccc(C#N)cc2)nc(N)c1Br [Etravirine]	619	–	–	–	1	–
Cc1cc(/C=C/C#N)cc(C)c1Nc1ccnc(Nc2ccc(C#N)cc2)n1 [Rilpivirine]	502	–	–	–	0.67	160

More lines, main results first:

IC50 (GSK-3β) [nM]	SMILES	GSK-3β inhibition, result in words (GSK-3β)	IC50 [1] [nM]	EC50 (HIV, WT; whole cell activity ref 22) [nM]	EC50 (HIV, WT; whole cell activity ref 21) [nM]	IC50 [2] [nM]
> 20000	O=C1Nc2ccc(Cl)cc2[C@@](C#CC2CC2)(C(F)(F)F)O1 [Efavirenz]	not inhibitors	–	–	2	–
1670	Cc1ccnc2c1NC(=O)c1cccnc1N2C1CC1 [Nevirapine]	–	–	–	110	–

— paper PMC12107553 (ACS chemical neuroscience, 2024)
